Measurements as given in ChEMBL document CHEMBL1146032, “Synthesis and biological activity of nociceptin/orphanin FQ(1-13)NH2 analogues modified in 9 and/or 13 position” (Bioorg Med Chem Lett, 2006).
Several values for one entry are separate records, joined by “and”; a condition that tells them apart may be missing. Equal entries are not always repeated. Where a SMILES comes first, the peptide text is derived from it. [ ]: non-standard residue; d: D form. Dap = NC[C@H](N)C(=O)O

Legend:
Format in all cases: functional, tissue-based
[1] = target: Nociceptin receptor (Rattus norvegicus) (UniProt P35370); assay: Activity against LFES-evoked contraction of Wistar rat vas deferens relative to N/OFQ(1-13)NH2
Chain of Nociceptin receptor (Rattus norvegicus) (P35370 whole entry): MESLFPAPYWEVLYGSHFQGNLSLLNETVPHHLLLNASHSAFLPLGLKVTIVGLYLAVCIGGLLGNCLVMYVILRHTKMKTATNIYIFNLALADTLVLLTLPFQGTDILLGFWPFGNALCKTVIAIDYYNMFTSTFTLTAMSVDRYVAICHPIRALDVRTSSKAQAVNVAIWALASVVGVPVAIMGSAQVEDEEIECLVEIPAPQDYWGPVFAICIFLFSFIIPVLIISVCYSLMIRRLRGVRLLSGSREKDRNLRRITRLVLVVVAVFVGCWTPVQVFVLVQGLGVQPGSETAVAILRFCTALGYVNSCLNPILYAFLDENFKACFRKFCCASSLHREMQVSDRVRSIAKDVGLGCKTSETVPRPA

[2] = target: Nociceptin receptor (Rattus norvegicus) (UniProt P35370); assay: (§1) Activity against LFES-evoked contraction of Wistar rat vas deferens in presence of naloxone
[3] = target: T1, Nociceptin receptor (Rattus norvegicus, UniProt P35370); assay: as §1
T1 sequence (P35370 whole entry): as above

[4] = target: Nociceptin receptor (Rattus norvegicus) (UniProt P35370); assay: Activity against LFES-evoked contraction of Wistar rat vas deferens relative to N/OFQ(1-13)NH2 in presence of naloxone
[5] = target: Nociceptin receptor (Rattus norvegicus) (UniProt P35370); assay: (§2) Activity against LFES-evoked contraction of Wistar rat vas deferens
[6] = target: T1, Nociceptin receptor; assay: as §2

| SMILES | Activity [1] | Emax [2] | EC50 [3] | Activity [4] | Emax [5] | EC50 [6] |
| --- | --- | --- | --- | --- | --- | --- |
| C[C@H](NC(=O)CNC(=O)[C@@H](NC(=O)[C@H](Cc1ccccc1)NC(=O)CNC(=O)CNC(=O)[C@@H](N)Cc1ccccc1)[C@@H](C)O)C(=O)N[C@@H](CCCN=C(N)N)C(=O)N[C@@H](CN)C(=O)N[C@@H](CO)C(=O)N[C@@H](C)C(=O)N[C@@H](CCCN=C(N)N)C(=O)N[C@@H](CN)C(N)=O (H-FGGFTGAR[Dap]SAR[Dap]-NH2) | 0.25 | -46% | 6.17 µM | 0.06 | -54% | 2.34 µM |
| C[C@H](NC(=O)CNC(=O)[C@@H](NC(=O)[C@H](Cc1ccccc1)NC(=O)CNC(=O)CNC(=O)[C@@H](N)Cc1ccccc1)[C@@H](C)O)C(=O)N[C@@H](CCCNC(=N)N)C(=O)N[C@@H](CCCCN)C(=O)N[C@@H](CO)C(=O)N[C@@H](C)C(=O)N[C@@H](CCCNC(=N)N)C(=O)N[C@@H](CCCCN)C(N)=O | 1 | -49% | – | 1 | -46% | – |
| C[C@H](NC(=O)CNC(=O)[C@@H](NC(=O)[C@H](Cc1ccccc1)NC(=O)CNC(=O)CNC(=O)[C@@H](N)Cc1ccccc1)[C@@H](C)O)C(=O)N[C@@H](CCCN=C(N)N)C(=O)N[C@@H](CCCN)C(=O)N[C@@H](CO)C(=O)N[C@@H](C)C(=O)N[C@@H](CCCN=C(N)N)C(=O)N[C@@H](CCCN)C(N)=O | 1.41 | -70% | 0.977 µM | 2.45 | -56% | 0.407 µM |
| C[C@H](NC(=O)CNC(=O)[C@@H](NC(=O)[C@H](Cc1ccccc1)NC(=O)CNC(=O)CNC(=O)[C@@H](N)Cc1ccccc1)[C@@H](C)O)C(=O)N[C@@H](CCCN=C(N)N)C(=O)N[C@@H](CCCN)C(=O)N[C@@H](CO)C(=O)N[C@@H](C)C(=O)N[C@@H](CCCN=C(N)N)C(=O)N[C@@H](CCCCN)C(N)=O | 2.45 | -77% | 0.214 µM | 1.56 | -71% | 0.234 µM |
| C[C@H](NC(=O)CNC(=O)[C@@H](NC(=O)[C@H](Cc1ccccc1)NC(=O)CNC(=O)CNC(=O)[C@@H](N)Cc1ccccc1)[C@@H](C)O)C(=O)N[C@@H](CCCN=C(N)N)C(=O)N[C@@H](CCCCN)C(=O)N[C@@H](CO)C(=O)N[C@@H](C)C(=O)N[C@@H](CCCN=C(N)N)C(=O)N[C@@H](CCCN)C(N)=O | 0.09 and 0.05 | -33% and -49% | 9.33 µM and 11 µM | 0.04 | -60% and -57% | 6.17 µM and 11.2 µM |
